{"source": "patent US8227499B2", "about": "“Substituted-aryl-(imidazole)-methyl)-phenyl compounds as subtype selective modulators of alpha 2B and/or alpha 2C adrenergic receptors” (Allergan, Inc., priority 2008, dated 2012)"}
{"target": "T1, alpha 2B receptor (Homo sapiens, UniProt P18089)", "T1 construct": "expressed in transfected cells; host or cells: NIH-3T3 cells", "T1 sequence (P18089 1-450)": "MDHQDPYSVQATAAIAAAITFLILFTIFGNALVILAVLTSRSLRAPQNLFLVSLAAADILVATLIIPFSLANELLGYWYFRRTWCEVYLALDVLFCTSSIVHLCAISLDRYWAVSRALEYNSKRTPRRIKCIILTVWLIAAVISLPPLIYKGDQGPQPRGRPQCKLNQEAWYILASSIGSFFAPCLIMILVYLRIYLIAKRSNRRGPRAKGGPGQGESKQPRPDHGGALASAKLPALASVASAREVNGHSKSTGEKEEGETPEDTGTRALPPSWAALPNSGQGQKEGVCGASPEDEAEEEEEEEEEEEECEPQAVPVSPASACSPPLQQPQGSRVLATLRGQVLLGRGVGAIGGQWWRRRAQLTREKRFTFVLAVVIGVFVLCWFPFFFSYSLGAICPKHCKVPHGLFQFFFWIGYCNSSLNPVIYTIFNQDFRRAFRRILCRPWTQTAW", "test": "Receptor Selection and Amplification technology (RSAT) assay, alpha 2B", "format": "cell-based", "conditions": "not given", "protocol": "(§1) The RSAT assay measures a receptor-mediated loss of contact inhibition that results in selective proliferation of receptor-containing cells in a mixed population of confluent cells. The increase in cell number is assessed with an appropriate transfected marker gene such as β-galactosidase, the activity of which can be easily measured in a 96-well format. Receptors that activate the G protein, Gq, elicit this response. Alpha 2 receptors, which normally couple to Gi, activate the RSAT response when coexpressed with a hybrid Gq protein that has a G; receptor recognition domain, called Gq/i5.\n(§2) NIH-3T3 cells are plated at a density of 2×10^6 cells in 15 cm dishes and maintained in Dulbecco's modified Eagle's medium supplemented with 10% calf serum. One day later, cells are cotransfected by calcium phosphate precipitation with mammalian expression plasmids encoding p-SV-β-galactosidase (5-10 μg), receptor (1-2 μg) and G protein (1-2 μg). 40 μg salmon sperm DNA may also be included in the transfection mixture. Fresh media is added on the following day and 1-2 days later, cells are harvested and frozen in 50 assay aliquots. Cells are thawed and 100 μl added to 100 μl aliquots of various concentrations of drugs in triplicate in 96-well dishes. Incubations continue 72-96 hr at 37° C. After washing with phosphate-buffered saline, .E-backward.-galactosidase enzyme activity is determined by adding 200 μl of the chromogenic substrate (consisting of 3.5 mM o-nitrophenyl-beta-D-galactopyranoside and 0.5% nonidet P-40 in phosphate buffered saline), incubating overnight at 30° C. and measuring optical density at 420 nm. The absorbance is a measure of enzyme activity, which depends on cell number and reflects a receptor-mediated cell proliferation. The efficacy or intrinsic activity is calculated as a ratio of the maximal effect of the drug to the maximal effect of a standard full agonist for each receptor subtype. Brimonidine, also called UK14304, the chemical structure of which is shown below, is used as the standard agonist for the alpha 2A, alpha 2B and alpha 2C receptors.", "units": {"EC50": "µM"}}
{"smiles": "Fc1cccc(C(c2ccccc2)c2c[nH]cn2)c1", "note": "(stereo not shown)", "EC50": 0.332}
{"smiles": "Cc1ccccc1C(c1ccccc1)c1c[nH]cn1", "note": "(stereo not shown)", "EC50": 0.055}
{"target": "T1, alpha 2B receptor", "test": "Receptor Selection and Amplification technology (RSAT) assay, alpha 2B", "format": "cell-based", "conditions": "RSAT in transfected NIH-3T3 cells; number outside parentheses; read-out: Alpha 2B potency (EC50)", "protocol": "as §1, §2", "units": {"EC50": "µM"}}
{"smiles": "Fc1cccc(C(c2ccccc2)c2c[nH]cn2)c1F", "note": "(stereo not shown)", "EC50": 0.062}
{"smiles": "Fc1c(C(c2ccccc2)c2c[nH]cn2)cccc1C(F)(F)F", "note": "(stereo not shown)", "EC50": 0.021}
{"smiles": "Cc1cccc(C(c2ccccc2)c2c[nH]cn2)c1C", "note": "(stereo not shown)", "EC50": 0.0018}
{"smiles": "Fc1c(Cl)cccc1C(c1ccccc1)c1c[nH]cn1", "note": "(stereo not shown)", "EC50": 0.044}
{"smiles": "Cc1c(Cl)cccc1C(c1ccccc1)c1c[nH]cn1", "note": "(stereo not shown)", "EC50": 0.018}
{"smiles": "Clc1cccc(C(c2ccccc2)c2c[nH]cn2)c1Cl", "note": "(stereo not shown)", "EC50": 0.0069}
{"target": "T1, alpha 2B receptor", "test": "Receptor Selection and Amplification technology (RSAT) assay, alpha 2B", "format": "cell-based", "conditions": "RSAT; number in parentheses; ratio of maximal effect to that of standard full agonist brimonidine (UK14304)", "protocol": "as §1, §2"}
{"smiles": "Fc1cccc(C(c2ccccc2)c2c[nH]cn2)c1F", "note": "(stereo not shown)", "Alpha 2B intrinsic activity (relative efficacy)": 1.10}
{"smiles": "Fc1c(C(c2ccccc2)c2c[nH]cn2)cccc1C(F)(F)F", "note": "(stereo not shown)", "Alpha 2B intrinsic activity (relative efficacy)": ".89"}
{"smiles": "Fc1cccc(C(c2ccccc2)c2c[nH]cn2)c1", "note": "(stereo not shown)", "Alpha 2B intrinsic activity (relative efficacy)": 1.00}
{"smiles": "Cc1cccc(C(c2ccccc2)c2c[nH]cn2)c1C", "note": "(stereo not shown)", "Alpha 2B intrinsic activity (relative efficacy)": 1.23}
{"smiles": "Cc1ccccc1C(c1ccccc1)c1c[nH]cn1", "note": "(stereo not shown)", "Alpha 2B intrinsic activity (relative efficacy)": ".99"}
{"smiles": "Fc1c(Cl)cccc1C(c1ccccc1)c1c[nH]cn1", "note": "(stereo not shown)", "Alpha 2B intrinsic activity (relative efficacy)": ".91"}
{"smiles": "Cc1c(Cl)cccc1C(c1ccccc1)c1c[nH]cn1", "note": "(stereo not shown)", "Alpha 2B intrinsic activity (relative efficacy)": 1.35}
{"smiles": "Clc1cccc(C(c2ccccc2)c2c[nH]cn2)c1Cl", "note": "(stereo not shown)", "Alpha 2B intrinsic activity (relative efficacy)": 1.19}
{"target": "T2, alpha 2C receptor (Homo sapiens, UniProt P18825)", "T2 construct": "expressed in transfected cells; host or cells: NIH-3T3 cells", "T2 sequence (P18825 1-462)": "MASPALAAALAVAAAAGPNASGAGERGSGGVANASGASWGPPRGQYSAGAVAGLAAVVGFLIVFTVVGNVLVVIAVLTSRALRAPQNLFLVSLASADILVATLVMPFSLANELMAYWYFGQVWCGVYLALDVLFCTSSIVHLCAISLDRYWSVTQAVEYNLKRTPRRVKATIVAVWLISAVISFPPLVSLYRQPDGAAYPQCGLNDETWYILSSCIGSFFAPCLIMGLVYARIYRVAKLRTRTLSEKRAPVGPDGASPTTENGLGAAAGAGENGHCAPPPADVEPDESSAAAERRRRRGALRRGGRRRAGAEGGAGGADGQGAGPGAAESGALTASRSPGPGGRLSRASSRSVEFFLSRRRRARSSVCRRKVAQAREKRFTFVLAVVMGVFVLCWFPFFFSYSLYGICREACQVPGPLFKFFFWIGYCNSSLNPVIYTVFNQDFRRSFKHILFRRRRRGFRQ", "test": "Receptor Selection and Amplification technology (RSAT) assay, alpha 2C", "format": "cell-based", "conditions": "not given", "description": "(§3) The compounds disclosed herein are agonists of alpha 2B/2C adrenergic receptors. […] 76, pp. 308-311 (incorporated herein by reference) and is also described below. Another reference pertinent to this assay is Conklin et al. (1993) Nature 363: 274-6, also incorporated herein by reference.\nas §1, §2", "units": {"EC50": "µM"}}
{"smiles": "Cc1ccccc1C(c1ccccc1)c1c[nH]cn1", "note": "(stereo not shown)", "EC50": 1.9}
{"target": "T2, alpha 2C receptor", "test": "Receptor Selection and Amplification technology (RSAT) assay, alpha 2C", "format": "cell-based", "conditions": "RSAT in transfected NIH-3T3 cells; number outside parentheses; read-out: Alpha 2C potency (EC50)", "description": "as §3, §1, §2", "units": {"EC50": "µM"}}
{"smiles": "Cc1cccc(C(c2ccccc2)c2c[nH]cn2)c1C", "note": "(stereo not shown)", "EC50": 0.091}
{"smiles": "Cc1c(Cl)cccc1C(c1ccccc1)c1c[nH]cn1", "note": "(stereo not shown)", "EC50": 0.411}
{"smiles": "Clc1cccc(C(c2ccccc2)c2c[nH]cn2)c1Cl", "note": "(stereo not shown)", "EC50": 0.332}
{"target": "T2, alpha 2C receptor", "test": "Receptor Selection and Amplification technology (RSAT) assay, alpha 2C", "format": "cell-based", "conditions": "RSAT; number in parentheses; ratio of maximal effect to that of standard full agonist brimonidine (UK14304)", "description": "as §3, §1, §2"}
{"smiles": "Fc1cccc(C(c2ccccc2)c2c[nH]cn2)c1F", "note": "(stereo not shown)", "Alpha 2C intrinsic activity (relative efficacy)": "No Data (.22)"}
{"smiles": "Fc1c(C(c2ccccc2)c2c[nH]cn2)cccc1C(F)(F)F", "note": "(stereo not shown)", "Alpha 2C intrinsic activity (relative efficacy)": "No Data (.12)"}
{"smiles": "Fc1cccc(C(c2ccccc2)c2c[nH]cn2)c1", "note": "(stereo not shown)", "Alpha 2C intrinsic activity (relative efficacy)": "No Data (.15)"}
{"smiles": "Cc1cccc(C(c2ccccc2)c2c[nH]cn2)c1C", "note": "(stereo not shown)", "Alpha 2C intrinsic activity (relative efficacy)": 1.02}
{"smiles": "Cc1ccccc1C(c1ccccc1)c1c[nH]cn1", "note": "(stereo not shown)", "Alpha 2C intrinsic activity (relative efficacy)": ".64"}
{"smiles": "Fc1c(Cl)cccc1C(c1ccccc1)c1c[nH]cn1", "note": "(stereo not shown)", "Alpha 2C intrinsic activity (relative efficacy)": "No Data (.21)"}
{"smiles": "Cc1c(Cl)cccc1C(c1ccccc1)c1c[nH]cn1", "note": "(stereo not shown)", "Alpha 2C intrinsic activity (relative efficacy)": ".35"}
{"smiles": "Clc1cccc(C(c2ccccc2)c2c[nH]cn2)c1Cl", "note": "(stereo not shown)", "Alpha 2C intrinsic activity (relative efficacy)": ".40"}
